This note sets out measurements from patent US20040106653A1, “Aminoalcohol derivatives” (FUJISAWA PHARMACEUTICAL CO., LTD., priority 2002, published 2004).

The subject of the assay is carbachol-induced increase in intravesical pressure (IVP) in anesthetized dog. Description: Effect on the increase in intravesical pressure induced by carbachol in anesthetized dog. The format is in vivo. The following applies: 0.032 mg/kg, intravenous; female Beagle dogs under halothane anesthesia; carbachol 1.8 μg/kg. On the procedure: Effect on the increase in intravesical pressure induced by carbachol in anesthetized dog Test Method Female Beagle dogs weighing 8.0-15.0 kg were fasted for 24 hours and maintained under halothane anesthesia. A 12F Foley catheter was lubricated with water soluble jelly, inserted into the urethral orifice and advanced approximately 10 cm until the balloon tip was placed well inside the bladder. The balloon was then inflated with 5 ml of room air and catheter slowly withdrawn just part the first resistance that is felt at the bladder neck. Urine was completely drained out through the catheter, and 30 ml of biological saline was infused. The catheter was connected to pressure transducer, and intravesical pressure was continuously recorded. Intravenous administration of test compound (I) inhibited carbachol (1.8 μg/kg)-induced increase in intravesical pressure (IVP).

Regarding `C[C@H](Cc1ccc(S(=O)(=O)c2ccc(C(=O)N(C)CC(=O)O)cc2)cc1)NC[C@H](O)c1cccc(Cl)c1.Cl` [Test Compound (1), [[4-[[4-[(2R)-2-[[(2R)-2-(3-Chlorophenyl)-2-hydroxyethyl]amino]propyl]phenyl]sulfonyl]benzoyl]-(methyl)amino]acetic acid hydrochloride], the “% inhibition of carbachol-induced increase in IVP” value amounted to 80.8%.
